What all share (assay type): biochemical
For assay [1], the target named is T1, porcine pancreatic PLA2 (Sus scrofa, UniProt P00592).
T1 construct: purchased Sigma
Description: PLA2 assay: in vitro porcine pancreatic phospholipase A2, preincubation of drug+enzyme, substrate 2 nM. Conditions: preincubation, subs. con. 2; for inhibition at 10 µg/mL: dose 10 μ/ml; for inhibition at 20 µg/mL: dose 20 μ/ml. The method in brief:
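Porcine pancreatic PLA2 acting on 2 nM radiolabeled arachidonyl-phosphatidylcholine in mixed micelles (0.1 M Tris-HCl pH 9.0, 10 mM CaCl2, 10 mM Na taurocholate), 15 min at 37 °C with preincubation of drug and enzyme. Stopped with TCA; released 3H-arachidonate extracted, separated by TLC or column, counted by scintillation.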

In assay [2] the target is T1, porcine pancreatic PLA2. Put plainly: HPLA2 assay: in vitro porcine pancreatic phospholipase A2, preincubation design, [s]=10 μm. The following applies: for inhibition at 20 µg/mL: dose 20 μ/ml; for inhibition at 50 µg/mL: dose 50 μ/ml. The procedure: (§1) Phospholipase A2 activity was measured by a radiochemical assay in which labeled synthetic phosphatidylcholine substrate is converted by porcine pancreatic PLA2 to free radiolabeled arachidonate and lyso PC. Radiolabeled arachidonate is extracted from the reaction mixture and separated from unreacted substrate by column chromatography or TLC. Radioactivity (cpm) in samples is quantitated by liquid scintillation counting. Specific details are as follows:
(§2) Labeled substrate(1-stearyl-2-^3 H-arachidonylphosphatidylcholine; Amersham, sp. act. 84 (uCi/mmole, 0.025 to 0.2 uCi/assay tube and unlabeled substrates (Avanti), in sufficient quantity to give 20,000 cpm to 50,000 cpm and 10 μM to 1,000 μM final concentration/assay tube are dried under a stream of nitrogen. The PLA2 and mPLA2 assays utilized a […] substrate concentration. The mHPLA2 and HPLA2 assays (vida infra) utilized a 10 μM substrate concentration and the SmPLA2 assay utilized a substrate concentration ranging from 100 to 1000 μm. The substrate is then redissolved in 0.1M tris-HCl buffer, pH 9.0 containing 10 mM CaCl2 and 10 mM Na taurocholate detergent. The mixture is sonicated in a Kontes Sonifier to yield a homogeneous dispersion. The "mixed" micellar substrate is clear. An aliquot is reserved for a cpm count (total substrate). The total reaction volume is 500 μL; siliconized glassware or plasticware is used throughout. Enzyme (Sigma, sp. act.>690 U/mg protein and preferably 900 U/mg protein) is diluted 1:750 or 1:1000 in 0.1M tris-HCl buffer, pH 9.0 (without Ca^++ and detergent). Enzyme dilution depends on substrate concentration and required enzyme concentration.
(§3) The substrate in buffer is kept on ice until the reaction is started. The reaction is started by adding 10 μL of diluted enzyme solution to 490 μL of micellar substrate solution. Samples are incubated in a 37° C. water bath for 15 minutes with gentle mixing. The reaction is terminated by the addition of 100 μL of 1M fresh trichloroacetic acid (TCA) solution and chilling the tubes on ice for 30 minutes.
(§4) Samples (600 μL) are extracted with 3 ml CHCl3 /MeOH (2:1) for thin layer chromatography or in hexane/ether (9:1) for column chromatography. The phases are separated by gentle centrifugation at 700 rpm×5'. The organic phase is recovered.
Labeled arachidonate extracted with CHCl3 /MeOH is separated on silica gel G TLC plates (Analtech). Twenty μL of a 2 mg/ml internal standard solution of arachidonic acid (Sigma) is combined with 2-3 ml of the organic phase. The entire mixture is dried under nitrogen and redissolved in 50 μL of CHCl3 /MeOH (2:1). A 20 μL sample is counted in 10 ml of Beckman Redi-solv HP and spotted on silica gel G plates. […] Plates are developed in a glass chamber for 1-11/2 hours, air dried, and the spots visualized in an iodine vapor chamber. Standards of phosphatidylcholine, lyso PC, and arachidonic acid (Sigma) are made as 2 mg/ml stocks in CHCl3 /MeOH (2:1) and spotted on plates. Spots corresponding to arachidonate and phospholipid are scraped and counted in 10 ml Beckman Redi-Solv HP scintillation fluid.
(§5) Samples are extracted with hexane/ether and the upper organic phase recovered. An aliquot is applied to a Silicar CC4 (Malincrodt) column. Columns are prepared using 1 ml of a 1:1 slurry of silicar CC4 in hexane/ether in a Pasteur pipet (approx. 2 cm height). Columns are rinsed with 500 μL of hexane/ether before adding the sample (300-600 μL) to the column. Columns are eluted with a total of 6 ml of hexane/ether. The 6 ml sample is counted in 10 ml of Beckman Redi-Solv HP scintillation fluid.
or the phospholipase A2 assay, compounds are prepared as 1 mg/ml stock solutions in MeOH and diluted appropriately in PBS.

For assay [3], the target named is T1, porcine pancreatic PLA2. Put plainly: MHPLA2 assay: in vitro porcine pancreatic phospholipase A2, mixed micelle design, [s]=10 μm. The method in brief: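 Compounds dried with 10 μM 1-stearyl-2-[3H]-arachidonyl-PC substrate in mixed micelles (0.1M tris-HCl pH 9.0, 10 mM CaCl2, 10 mM Na taurocholate). Reaction started by adding enzyme and run 15 min at 37°C, then stopped with TCA. Released [3H]-arachidonate separated by TLC or column and counted by scintillation.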

The target of assay [4] is T1, porcine pancreatic PLA2. Description: SMPLA2 assay: in vitro porcine pancreatic phospholipase A2, mixed micelle design, substrate 100 to 1000 μm. As to the method:
as §1, §2, §3, §4
Labeled arachidonate extracted with CHCl3 /MeOH is separated on silica gel G TLC plates (Analtech). Twenty μL of a 2 mg/ml internal standard solution of arachidonic acid (Sigma) is combined with 2-3 ml of the organic phase. The entire mixture is dried under nitrogen and redissolved in 50 μL of CHCl3 /MeOH (2:1). A 20 μL sample is counted in 10 ml of Beckman Redi-solv HP and spotted on silica gel G plates. The solvent system used to develop the plate is CHCl3 /MeOH/13.5N NH3 /H2 O (70:30:4:1). Plates are developed in a glass chamber for 1-11/2 hours, air dried, and the spots visualized in an iodine vapor chamber. Standards of phosphatidylcholine, lyso PC, and arachidonic acid (Sigma) are made as 2 mg/ml stocks in CHCl3 /MeOH (2:1) and spotted on plates. Spots corresponding to arachidonate and phospholipid are scraped and counted in 10 ml Beckman Redi-Solv HP scintillation fluid.
as §5
or the phospholipase A2 assay, compounds are prepared as 1 mg/ml stock solutions in MeOH and diluted appropriately in PBS. […]

Assay [5] concerns the target T1, porcine pancreatic PLA2. Description: MPLA2 assay: in vitro porcine pancreatic phospholipase A2, mixed micelle design, substrate 2 nM. The following applies: for inhibition at 10 µg/mL: dose 10 μ/ml; for inhibition at 20 µg/mL: dose 20 μ/ml. The method, boiled down:
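Radiochemical PLA2 assay, mixed-micelle design: compound dried under N2 with 1-stearyl-2-[3H]-arachidonyl-PC substrate (2 nM) in 0.1M Tris-HCl pH 9.0, 10 mM CaCl2, 10 mM Na taurocholate. Reaction started with enzyme, 15 min at 37° C, stopped with TCA; released [3H]-arachidonate extracted, separated by TLC or column, counted by scintillation.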

Setting [6] is: dose 10 μ/ml, subs. con. 10, read-out: % Inh. Avg.
Setting [7] is: subs. con. 10, read-out: % Inh. Avg.
Where [8] appears, read: subs. con. 10, read-out: % Inh.
The mark [9] stands for this setting: subs. con. 2, read-out: % Inh. Avg.
Where [10] appears, read: dose 25 μ/ml, subs. con. 2, read-out: % Inh.

SMILES strings stand for the structures. Values joined by “and” are separate entries in the source; they are usually repeats but may differ in a detail not shown here. Identical values can stand only once. Counter-ions that a name gives are not always drawn. Like-named read-outs stand apart in the source and are kept apart here.

T1 sequence (P00592 23-146): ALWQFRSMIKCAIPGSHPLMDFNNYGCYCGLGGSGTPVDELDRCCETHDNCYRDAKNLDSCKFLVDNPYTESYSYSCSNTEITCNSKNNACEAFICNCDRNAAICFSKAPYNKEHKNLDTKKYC

For the compound `CCCCCCCCCCCCCCCCOC[C@@H](COP(=O)([O-])OCC[N+](C)(C)C)OP(=O)(OC)OCCCCCCCCCCCCCCCC` (single isomer, unassigned), the inhibition at 10 µg/mL amounted to 29% on porcine pancreatic PLA2 [1] (read-out: % Inh. Avg.) and 22% at porcine pancreatic PLA2 [2] (setting [6]). For the same compound, the results for the inhibition at 20 µg/mL on porcine pancreatic PLA2 [1] (read-out: % Inh. Avg.) and at porcine pancreatic PLA2 [2] (setting [7]) were 26% and 18%, respectively. On porcine pancreatic PLA2 [2] (setting [7]), the inhibition at 50 µg/mL worked out at 23%.
Consider `CCCCCCCCCCCCCCCCOCC(COP(=O)([O-])OCC[N+](C)(C)C)OP(=O)(O)OCCCCCCCCCCCCCCCC` (stereo not drawn) [3,5,8,10-Tetraoxa-4,9-diphosphahexacosan-1-aminium, 7-[(hexadecyloxy)methyl]-4,9-dihydroxy-N,N,N-trimethyl-, hydroxide, 4-inner salt), 4,9-dioxide], for which, at porcine pancreatic PLA2 [2] (setting [8]), the inhibition at 20 µg/mL is 0% and the inhibition at 50 µg/mL is 0%.
Consider `CCCCCCCCCCCCCCCCOCC(COP(=O)([O-])OCC[N+](C)(C)C)CC(N)CCCCCCCCCCCCCCCC` (stereo not drawn) [7-(2-Aminooctadecyl)-4-hydroxy-N,N,N-trimethyl-3,5,9-trioxa-4-phosphapentacosanaminium, hydroxide, inner salt, 4-oxide], for which the “% Inh.” value at porcine pancreatic PLA2 [3] (dose 10 μ/ml, subs. con. 10) is reported as 59%; on porcine pancreatic PLA2 [5] (dose 25 μ/ml, subs. con. 2), “STIM”. Moreover, the inhibition at 10 µg/mL at porcine pancreatic PLA2 [3] (setting [6]) amounted to 70%; at porcine pancreatic PLA2 [1] (read-out: % Inh.) it was 95%; on porcine pancreatic PLA2 [5] (subs. con. 2, read-out: % Inh.), 34%; at porcine pancreatic PLA2 [5] (setting [9]), 65%. Further, the inhibition at 20 µg/mL against porcine pancreatic PLA2 [3] (dose 20 μ/ml, subs. con. 10) was 97%; at porcine pancreatic PLA2 [1] (read-out: % Inh.), 95%; on porcine pancreatic PLA2 [5] (subs. con. 2, read-out: % Inh.) it was 72%; at porcine pancreatic PLA2 [5] (setting [9]), 85%. The inhibition at 25 µg/mL on porcine pancreatic PLA2 [3] (dose 25 μ/ml, subs. con. 10, read-out: % Inh.) was determined as 78%; at porcine pancreatic PLA2 [3] (dose 25 μ/ml, subs. con. 10, read-out: % Inh. Avg.), 77%; against porcine pancreatic PLA2 [4] (dose 25 μ/ml, subs. con. 100), 63%; at porcine pancreatic PLA2 [5] (setting [10]), 92%. The IC50 (usually the concentration that inhibits the measured activity by half) on porcine pancreatic PLA2 [3] (subs. con. 10, read-out: IC50 (converted)) was 1.91 µM and 7.09 µM and 8.73 µM; on porcine pancreatic PLA2 [3] (subs. con. 10, read-out: IC50 Avg. (converted)), 5.87 µM; on porcine pancreatic PLA2 [4] (subs. con. 100, read-out: IC50 (converted)) it was 20.6 µM and 34.1 µM; on porcine pancreatic PLA2 [4] (subs. con. 100, read-out: IC50 Avg. (converted)), 27.3 µM; at porcine pancreatic PLA2 [1] (read-out: IC50 (converted)), 0.682 µM. The “% Inh. Avg.” value at porcine pancreatic PLA2 [4] (dose 25 μ/ml, subs. con. 100) amounted to 61%.
For `CCCCCCCCCCCCCCCCOCC(COP(=O)([O-])OCC[N+](C)(C)C)OP(=O)(O)OCCCCC` (single isomer, unassigned; less polar) [3,5,8,10-Tetraoxa-4,9-diphosphapentadecan-1-aminium, 7-[(hexadecyloxy)methyl]-4,9-dihydroxy-N,N,N-trimethyl-, hydroxide, 4-(inner salt), 4,9-dioxide, less polar isomer], the “% Inh.” value at porcine pancreatic PLA2 [3] (dose 10 μ/ml, subs. con. 10) was “STIM”; at porcine pancreatic PLA2 [3] (dose 25 μ/ml, subs. con. 10), “STIM”; at porcine pancreatic PLA2 [4] (dose 10 μ/ml, subs. con. 100), “STIM”; at porcine pancreatic PLA2 [4] (dose 25 μ/ml, subs. con. 100), “STIM”; at porcine pancreatic PLA2 [4] (dose 50 μ/ml, subs. con. 100), “STIM”; on porcine pancreatic PLA2 [4] (dose 50 μ/ml, subs. con. 500) it was “STIM”. In addition, the “% Inh.” value at porcine pancreatic PLA2 [4] (dose 50 μ/ml, subs. con. 1000) is “STIM”. The inhibition at 10 µg/mL against porcine pancreatic PLA2 [4] (dose 10 μ/ml, subs. con. 500) was found to be 7%; on porcine pancreatic PLA2 [4] (dose 10 μ/ml, subs. con. 1000), 22%; at porcine pancreatic PLA2 [1] (read-out: % Inh.), 21%. Besides, the inhibition at 25 µg/mL was found to be 29% at porcine pancreatic PLA2 [4] (dose 25 μ/ml, subs. con. 500); 3% on porcine pancreatic PLA2 [4] (dose 25 μ/ml, subs. con. 1000); 100% on porcine pancreatic PLA2 [5] (setting [10]). Besides, at porcine pancreatic PLA2 [1] (read-out: % Inh.), the inhibition at 20 µg/mL worked out at 41%.
`CCCCCCCCCCCCCCCCOCC(COP(=O)([O-])OCC[N+](C)(C)C)OP(=O)(O)OCCCCCCCCCCCCCCCC` (stereo not drawn) [3,5,8,10-Tetraoxa-4,9-diphosphahexacosan-1-aminium, 7-[(hexa] [3,5,8,10-Tetraoxa-4,9-diphosphahexacosan-1-aminium, 7-[(hexadecyloxy)methyl]-4,9-dihydroxy-N,N,N-trimethyl-hydroxide, 4-(inner salt), 4,9-dioxide]: the “% Inh.” value at porcine pancreatic PLA2 [2] (dose 10 μ/ml, subs. con. 10) is recorded as “STIM”.
